Results reported in paper PMC4604124, “In Vitro Characterization of the Pharmacological Properties of the Anti-Cancer Chelator, Bp4eT, and Its Phase I Metabolites” (PLoS ONE, 2015).
Several values for one entry are separate records, joined by “and”; a condition that tells them apart may be missing. Identical values can stand only once. Like-named read-outs stand apart in the source and are kept apart here.

What was measured:
[1] = tested on: caspases 3/7; experiment: Caspase activity, luminescent kit, caspases 3/7; assay type: cell-based, human; conditions: for kaspáza (3) a 7, raw signal / kaspáza (3) a 7, signal / viabilita: individual experiments by date; for kaspáza (3) a 7, raw signal, průměry / kaspáza (3) a 7, % kontroly / kaspáza (3) a 7, signal / viabilita, průměry: mean; for kaspáza (3) a 7, % kontroly / kaspáza (3) a 7, signal / viabilita / kaspáza (3) a 7, signal / viabilita, průměry: normalised to viability
Description: To assess the effect of the compounds on caspase activity, MCF-7 cells were incubated with 100 nM Bp4eT or its metabolites for 3, 24 or 72 h/37°C in 96-well plates, as described above. The cells were then lysed by adding 100 μL of cold lysis buffer (100 mM HEPES, 10 mM CHAPS, 10 mM D-L-dithiothreitol, pH 7.4) to 100 μL of medium in each well. Lysates were immediately frozen at -80°C. Thawed lysates were used to assess caspase activity using luminescent kits for caspases 3/7, 8 and 9 (Promega, Madison, WI, USA). The luminescence was measured using the Tecan Infinite 200M plate reader. Caspase activity in the experimental groups was corrected according to the cellular viability of each group and expressed as a percentage of activity of the untreated control (100%).

[2] = tested on: HL-60 human promyelocytic leukemia cells; experiment: MTT cytotoxicity assay, HL-60 cells; assay type: cell-based; conditions: for IC50: MTT, read-out: IC50
Description: (§1) For cytotoxicity experiments, cancer cells were seeded at a density of 5,000 (MCF-7), 10,000 (HL-60) or 2,000 cells/well (HCT116 and A549) in 96-well plates (TPP) for 24 h/37°C prior to the addition of examined agents. The non-cancerous cells, 3T3 and H9c2 cells, were cultured for 24 h/37°C in 96-well plates at a density of 10,000 cells/well, the medium was then changed to serum- and pyruvate-free DMEM (Sigma-Aldrich) and incubated with the cells for another 24 h/37°C. The cytotoxic effects of Bp4eT and its metabolites were studied at different concentrations after a 72 h/37°C incubation. In order to aid the dissolution of the lipophilic ligands, 0.1% dimethyl sulfoxide (v/v) (DMSO; Sigma-Aldrich) was present in the culture medium of all groups. At this concentration, DMSO had no effect on cellular proliferation or viability.
(§2) The viability of cells were determined using an MTT assay (Sigma-Aldrich) according to previously established methods. The optical density of soluble MTT was measured at λ = 570 nm, subtracting the λ = 690 nm background using a Tecan Infinite 200M plate reader (Tecan Group, Männedorf, Switzerland). The viability or proliferation of experimental groups was expressed as a percentage of the untreated controls (100%).
(§3) SigmaStat for Windows 3.5 (Systat Software, San Jose, CA, USA) statistical software package was utilized to analyze results. The data are expressed as the mean ± SD of a given number of experiments. Statistical significance was determined using a one-way ANOVA with a Bonferroni post-hoc test or Student’s t-test. The results were considered to be statistically significant when p < 0.05. The IC50 values were calculated using CalcuSyn 2.0 software (Biosoft, Cambridge, UK). Cell cycle analysis was evaluated using MultiCycle AV Software (Phoenix Flow Systems, San Diego, CA, USA).

[3] = tested on: HCT116 human colorectal carcinoma cells; experiment: MTT cytotoxicity assay, HCT116 cells; assay type: cell-based; conditions: for MTT, relative to control (0 = 100): HCT116, 2 000 b/j, sheet Bp4eA
Description: as §1, §2, §3

CCN=CNN=C(c1ccccc1)c1ccccn1 [Bp4eA, N ^3-ethyl-N ^1-[phenyl(pyridin-2-yl)methylene]formamidrazone]
kaspáza (3) a 7, raw signal ([1]; 3 hodiny): 1911.5 and 1519 and 1669 and 1490 | kaspáza (3) a 7, raw signal, průměry ([1]; 3 hodiny): 1647.38 | kaspáza (3) a 7, % kontroly ([1]; 3 hodiny): 103.19 % kontroly | kaspáza (3) a 7, signal / viabilita ([1]; 3 hodiny): 19.7461 and 15.6915 and 17.241 and 15.3919 | kaspáza (3) a 7, signal / viabilita, průměry ([1]; 3 hodiny): 17.0176 | kaspáza (3) a 7, raw signal ([1]; 24 hodin): 2415 and 2091.5 and 2337 and 2002.5 | kaspáza (3) a 7, raw signal, průměry ([1]; 24 hodin): 2211.5 | kaspáza (3) a 7, % kontroly ([1]; 24 hodin): 101.36 % kontroly | kaspáza (3) a 7, signal / viabilita ([1]; 24 hodin): 25.2632 and 21.8791 and 24.4473 and 20.9481 | kaspáza (3) a 7, signal / viabilita, průměry ([1]; 24 hodin): 23.1344 | kaspáza (3) a 7, raw signal ([1]; 72 hodin): 7143 and 7295 and 7483 and 8002 | kaspáza (3) a 7, raw signal, průměry ([1]; 72 hodin): 7480.75 | kaspáza (3) a 7, % kontroly ([1]; 72 hodin): 108.88 % kontroly | kaspáza (3) a 7, signal / viabilita ([1]; 72 hodin): 76.7734 and 78.4071 and 80.4278 and 86.006 | kaspáza (3) a 7, signal / viabilita, průměry ([1]; 72 hodin): 80.4036 | Therapeutic index, IC50 non-cancerous cells / IC50 neoplastic cells ([2]; 3T3/HL-60): 19.7 | Therapeutic index, IC50 non-cancerous cells / IC50 neoplastic cells ([2]; H9c2/HL-60): 8.0 | MTT, relative to control (0 = 100) ([2]; HL-60, 10 000 b/j, 3 μM, průměr (mean), sheet Bp4eA): 96.31 | MTT, relative to control (0 = 100) ([2]; HL-60, 10 000 b/j, 3 μM, single experiment (date), sheet Bp4eA): 98.9707 and 95.9296 and 99.8753 and 90.4839 | MTT, relative to control (0 = 100) ([2]; HL-60, 10 000 b/j, 10 μM, průměr (mean), sheet Bp4eA): 96.62 | MTT, relative to control (0 = 100) ([2]; HL-60, 10 000 b/j, 10 μM, single experiment (date), sheet Bp4eA): 97.2125 and 99.0002 and 94.4459 and 95.8253 | MTT, relative to control (0 = 100) ([2]; HL-60, 10 000 b/j, 30 μM, průměr (mean), sheet Bp4eA): 83.43 | MTT, relative to control (0 = 100) ([2]; HL-60, 10 000 b/j, 30 μM, single experiment (date), sheet Bp4eA): 80.8819 and 83.0208 and 86.8317 and 82.995 | MTT, relative to control (0 = 100) ([2]; HL-60, 10 000 b/j, 50 μM, průměr (mean), sheet Bp4eA): 62.90 | MTT, relative to control (0 = 100) ([2]; HL-60, 10 000 b/j, 50 μM, single experiment (date), sheet Bp4eA): 62.3054 and 62.5036 and 62.1604 and 64.6299 | MTT, relative to control (0 = 100) ([2]; HL-60, 10 000 b/j, 80 μM, průměr (mean), sheet Bp4eA): 16.51 | MTT, relative to control (0 = 100) ([2]; HL-60, 10 000 b/j, 100 μM, průměr (mean), sheet Bp4eA): 1.77 | MTT, relative to control (0 = 100) ([2]; HL-60, 10 000 b/j, 300 μM, průměr (mean), sheet Bp4eA): 1.66 | IC50 ([2]; HL-60, 10 000 b/j, single experiment (date), sheet Bp4eA): 51 µM and 54.1 µM and 55.3 µM | IC50 ([2]; Homo sapiens, HL-60, 72 h, HL-60, 72 h/37°C, mean ± SD, n ≥ 4): 52.1 ± 3.3 µM | IC50 ([2]; Homo sapiens, HL-60, HL-60, 10 000 b/j, průměr (mean), sheet Bp4eA): 52.1 µM | IC50 ([2]; Homo sapiens, HL-60, HL-60, 10 000 b/j, single experiment (date), sheet Bp4eA): 47.9 µM | Therapeutic index, IC50 non-cancerous cells / IC50 neoplastic cells ([3]; 3T3/HCT116): 9.2 | Therapeutic index, IC50 non-cancerous cells / IC50 neoplastic cells ([3]; H9c2/HCT116): 3.7 | MTT, relative to control (0 = 100) ([3]; 1 μM, průměr (mean)): 97.58 | MTT, relative to control (0 = 100) ([3]; 1 μM, single experiment (date)): 99.1509 and 100.455 and 96.4816 and 94.6996 and 96.3825 and 98.3223 | MTT, relative to control (0 = 100) ([3]; 3 μM, průměr (mean)): 97.04 | MTT, relative to control (0 = 100) ([3]; 3 μM, single experiment (date)): 97.9686 and 98.7085 and 92.1521 and 93.3267 and 100.675 and 99.4316 | MTT, relative to control (0 = 100) ([3]; 10 μM, průměr (mean)): 94.04 | MTT, relative to control (0 = 100) ([3]; 10 μM, single experiment (date)): 94.463 and 96.9011 and 92.7169 and 93.3863 and 93.3144 and 93.4876 | MTT, relative to control (0 = 100) ([3]; 30 μM, průměr (mean)): 89.95 | MTT, relative to control (0 = 100) ([3]; 30 μM, single experiment (date)): 90.1675 and 87.4242 and 84.0067 and 87.0754 and 95.7934 and 95.2315
